Residual activity, inhibition and Ki data for two compounds are collected here from ChEMBL document CHEMBL4507260 (2021).

The source made the active and inactive calls. The calls are words filed in the database; no cut-off is given here. Bounds are passed on as bounds.

Data set [1] deals with Epidermal growth factor receptor (Homo sapiens), P00533 [UNDEFINED MUTATION]. Conditions: Compound concentration 1000.0 nM.
Data set [2] deals with Phosphorylase b kinase regulatory subunit alpha, liver isoform (Homo sapiens) (UniProt P46019). The note with it: Compound concentration 1000.0 nM.
Data set [3] deals with Epidermal growth factor receptor (Homo sapiens), P00533 [G719C]. Conditions: Compound concentration 1000.0 nM.
In data set [4] the target is Dual specificity protein kinase CLK4 (Homo sapiens) (UniProt Q9HAZ1). The note with it: Compound concentration 1000.0 nM.
Chain of Dual specificity protein kinase CLK4 (Homo sapiens) (Q9HAZ1 whole entry, looked up): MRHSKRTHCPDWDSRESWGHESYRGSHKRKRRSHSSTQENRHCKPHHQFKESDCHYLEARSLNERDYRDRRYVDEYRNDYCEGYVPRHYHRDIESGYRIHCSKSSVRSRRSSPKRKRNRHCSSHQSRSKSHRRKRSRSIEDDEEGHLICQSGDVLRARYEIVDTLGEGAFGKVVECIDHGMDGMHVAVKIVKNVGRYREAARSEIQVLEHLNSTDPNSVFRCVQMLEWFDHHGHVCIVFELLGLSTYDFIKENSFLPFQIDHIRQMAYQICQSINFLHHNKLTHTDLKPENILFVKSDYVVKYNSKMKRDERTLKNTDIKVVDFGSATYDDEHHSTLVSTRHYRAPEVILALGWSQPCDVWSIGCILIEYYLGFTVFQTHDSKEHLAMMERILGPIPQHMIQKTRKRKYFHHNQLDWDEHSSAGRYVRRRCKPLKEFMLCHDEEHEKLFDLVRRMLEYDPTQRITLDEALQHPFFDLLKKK
Data set [5] addresses Translocator protein (Rattus norvegicus) (UniProt P16257). The note with it: Compound concentration 10.0 uM.
Description: BZD (peripheral) CEREP ligand profiling
The target in data set [6] is B2 bradykinin receptor (Homo sapiens) (UniProt P30411). Conditions: Compound concentration 10.0 uM.
Chain of B2 bradykinin receptor (Homo sapiens) (P30411 whole entry): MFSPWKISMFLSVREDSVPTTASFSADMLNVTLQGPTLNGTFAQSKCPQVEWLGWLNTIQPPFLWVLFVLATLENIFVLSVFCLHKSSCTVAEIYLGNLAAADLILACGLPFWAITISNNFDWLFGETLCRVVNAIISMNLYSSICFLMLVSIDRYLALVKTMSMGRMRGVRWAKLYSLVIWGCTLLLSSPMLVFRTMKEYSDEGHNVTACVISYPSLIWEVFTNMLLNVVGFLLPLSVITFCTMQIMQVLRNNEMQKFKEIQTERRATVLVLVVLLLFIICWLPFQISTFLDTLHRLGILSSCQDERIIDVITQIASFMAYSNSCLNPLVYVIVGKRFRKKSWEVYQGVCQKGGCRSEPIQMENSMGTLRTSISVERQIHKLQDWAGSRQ
Description: B2 CEREP ligand profiling
Data set [7] addresses 5-hydroxytryptamine receptor 5A (Homo sapiens) (UniProt P47898). The data set is described as follows: 5-HT5A CEREP ligand profiling. Conditions: Compound concentration 10.0 uM.
The target in data set [8] is 5-hydroxytryptamine receptor 2A (Homo sapiens) (UniProt P28223). The note with it: Compound concentration 10.0 uM.
Description: 5-HT2A CEREP ligand profiling
Data set [9] deals with C-X-C chemokine receptor type 2 (Homo sapiens) (UniProt P25025). Conditions: Compound concentration 10.0 uM.
Chain of C-X-C chemokine receptor type 2 (Homo sapiens) (P25025 whole entry): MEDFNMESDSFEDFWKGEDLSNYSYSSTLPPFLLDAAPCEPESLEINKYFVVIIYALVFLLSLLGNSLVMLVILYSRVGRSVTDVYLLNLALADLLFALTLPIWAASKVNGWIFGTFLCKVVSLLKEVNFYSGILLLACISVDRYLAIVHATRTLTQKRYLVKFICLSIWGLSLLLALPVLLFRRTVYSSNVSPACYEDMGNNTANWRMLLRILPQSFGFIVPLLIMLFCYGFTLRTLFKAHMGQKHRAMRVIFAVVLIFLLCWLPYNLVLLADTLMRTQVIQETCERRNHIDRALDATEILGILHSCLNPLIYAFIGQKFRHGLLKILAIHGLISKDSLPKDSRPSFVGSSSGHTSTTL
Description: IL-8B (CXCR2) CEREP ligand profiling
For data set [10], the target named is Beta-1 adrenergic receptor (Homo sapiens) (UniProt P08588). Conditions: Compound concentration 10.0 uM.
Description: b 1 CEREP ligand profiling
Data set [11] has as its target Adrenergic receptor alpha-2 (Homo sapiens) (UniProt P08913+P18825+P18089). As to the kind of experiment: a 2 CEREP ligand profiling. The class given is protein assay. Conditions: Compound concentration 10.0 uM.
The target of data set [12] is Histamine H1 receptor (Homo sapiens) (UniProt P35367). As to the kind of experiment: H1 CEREP ligand profiling. The note with it: Compound concentration 10.0 uM.
Chain of Histamine H1 receptor (Homo sapiens) (P35367 whole entry): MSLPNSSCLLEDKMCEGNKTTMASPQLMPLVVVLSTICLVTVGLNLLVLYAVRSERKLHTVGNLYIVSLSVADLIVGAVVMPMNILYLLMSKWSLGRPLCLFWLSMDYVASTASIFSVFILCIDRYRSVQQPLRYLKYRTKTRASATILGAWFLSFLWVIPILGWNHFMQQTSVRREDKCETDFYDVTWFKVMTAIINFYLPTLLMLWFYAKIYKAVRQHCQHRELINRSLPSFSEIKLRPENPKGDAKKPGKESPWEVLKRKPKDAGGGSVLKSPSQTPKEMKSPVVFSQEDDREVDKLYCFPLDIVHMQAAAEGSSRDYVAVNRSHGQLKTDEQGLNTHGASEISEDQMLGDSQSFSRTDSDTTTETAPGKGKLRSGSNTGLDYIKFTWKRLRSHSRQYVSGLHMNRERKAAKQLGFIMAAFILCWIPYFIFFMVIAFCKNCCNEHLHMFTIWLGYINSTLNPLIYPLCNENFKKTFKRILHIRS
For data set [13], the target named is D(2) dopamine receptor (Homo sapiens) (UniProt P14416). Conditions: Compound concentration 10.0 uM.
Description: D2 CEREP ligand profiling
Another data set deals with T1, D(4) dopamine receptor (Homo sapiens, UniProt P21917).
T1 sequence (P21917 whole entry): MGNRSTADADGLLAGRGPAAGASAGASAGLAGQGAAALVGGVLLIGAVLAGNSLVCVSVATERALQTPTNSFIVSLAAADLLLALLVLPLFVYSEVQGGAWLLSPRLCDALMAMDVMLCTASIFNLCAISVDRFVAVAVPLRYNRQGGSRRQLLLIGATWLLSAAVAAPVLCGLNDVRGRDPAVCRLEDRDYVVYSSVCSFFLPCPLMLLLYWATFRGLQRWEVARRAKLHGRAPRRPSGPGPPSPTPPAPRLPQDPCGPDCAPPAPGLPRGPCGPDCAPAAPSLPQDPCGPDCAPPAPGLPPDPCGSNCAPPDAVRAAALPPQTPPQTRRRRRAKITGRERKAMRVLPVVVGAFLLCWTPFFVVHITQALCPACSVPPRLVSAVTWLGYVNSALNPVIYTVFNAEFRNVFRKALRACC
As to the kind of experiment: Radioligand assay using 3[H] A-369508.

Data set [14] has as its target D(1B) dopamine receptor (Homo sapiens) (UniProt P21918). Conditions: Compound concentration 10.0 uM.
Description: D5 CEREP ligand profiling
In data set [15] the target is Gastrin/cholecystokinin type B receptor (Homo sapiens) (UniProt P32239). The data set is described as follows: CCKB (CCK2) CEREP ligand profiling. The note with it: Compound concentration 10.0 uM.
Chain of Gastrin/cholecystokinin type B receptor (Homo sapiens) (P32239 whole entry): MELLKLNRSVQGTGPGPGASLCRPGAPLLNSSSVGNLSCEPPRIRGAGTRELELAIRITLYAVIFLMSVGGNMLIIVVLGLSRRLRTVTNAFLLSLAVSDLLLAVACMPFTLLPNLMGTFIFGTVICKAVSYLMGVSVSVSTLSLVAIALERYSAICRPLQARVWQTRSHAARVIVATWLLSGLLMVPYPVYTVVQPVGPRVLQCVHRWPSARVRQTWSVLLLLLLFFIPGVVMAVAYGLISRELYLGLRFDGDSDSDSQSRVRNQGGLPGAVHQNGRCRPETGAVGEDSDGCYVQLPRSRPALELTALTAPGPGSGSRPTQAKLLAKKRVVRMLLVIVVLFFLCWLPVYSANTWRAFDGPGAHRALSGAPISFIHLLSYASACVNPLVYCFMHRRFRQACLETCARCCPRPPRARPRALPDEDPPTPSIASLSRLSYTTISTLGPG
Data set [16] has as its target Histamine H2 receptor (Homo sapiens) (UniProt P25021). The note with it: Compound concentration 10.0 uM.
Description: H2 CEREP ligand profiling
Data set [17] addresses Sodium-dependent noradrenaline transporter (Homo sapiens) (UniProt P23975). The note with it: Compound concentration 10.0 uM.
Description: NE transporter CEREP ligand profiling
The target in data set [18] is Voltage-gated potassium channel (K+V channel) (Homo sapiens, UniProt O43525+O43526+O95259+P16389+P17658+P22001+P22459+P22460+P48547+P51787+P56696+Q03721+Q09470+Q12809+Q14003+Q14721+Q16322+Q6PIU1+Q8NCM2+Q8TAE7+Q8TDN1+Q8TDN2+Q92953+Q96KK3+Q96L42+Q96PR1+Q96RP8+Q9BQ31+Q9H252+Q9H3M0+Q9NR82+Q9NS40+Q9NSA2+Q9NZV8+Q9UIX4+Q9UJ96+Q9UK17+Q9ULD8+Q9ULS6+Q9UQ05). The data set is described as follows: K+V channel CEREP ligand profiling. The note with it: compound concentration 10 uM. The class given is protein assay.

Data set [19] concerns the target Tumor necrosis factor (Homo sapiens) (UniProt P01375). The note with it: Compound concentration 10.0 uM.
Description: TNF-a CEREP ligand profiling
For data set [20], the target named is Voltage-gated L-type calcium channel (Ca2+ channel) (Homo sapiens, UniProt O60840+Q01668+Q13698+Q13936). The data set is described as follows: Ca2+ channel CEREP ligand profiling. It is filed as protein assay. The note with it: compound concentration 10 uM.
The target of data set [21] is Galanin receptor type 1 (Homo sapiens) (UniProt P47211). Conditions: Compound concentration 10.0 uM.
Chain of Galanin receptor type 1 (Homo sapiens) (P47211 whole entry): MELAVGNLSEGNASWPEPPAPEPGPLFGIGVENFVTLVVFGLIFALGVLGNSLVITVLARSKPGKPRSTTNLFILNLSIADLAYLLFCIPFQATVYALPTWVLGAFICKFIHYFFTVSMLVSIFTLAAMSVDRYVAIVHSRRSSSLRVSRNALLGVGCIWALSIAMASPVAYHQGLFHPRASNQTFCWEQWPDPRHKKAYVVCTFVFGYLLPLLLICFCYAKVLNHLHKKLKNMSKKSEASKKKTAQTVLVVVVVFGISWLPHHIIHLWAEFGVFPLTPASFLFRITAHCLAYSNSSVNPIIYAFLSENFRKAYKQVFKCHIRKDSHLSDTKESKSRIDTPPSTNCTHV
Description: GAL1 CEREP ligand profiling
The target in data set [22] is P2Y receptor (Homo sapiens) (UniProt Q9H244+P51582+P47900+P41231+Q15391+Q15077+Q96G91+Q9BPV8). Conditions: Compound concentration 10.0 uM.
Description: P2Y CEREP ligand profiling
In data set [23] the target is 5-hydroxytryptamine receptor 3A (Homo sapiens) (UniProt P46098). The note with it: Compound concentration 10.0 uM.
Description: 5-HT3 CEREP ligand profiling
For data set [24], the target named is Vasopressin V1a receptor (Homo sapiens) (UniProt P37288). Conditions: Compound concentration 10.0 uM.
Chain of Vasopressin V1a receptor (Homo sapiens) (P37288 whole entry, looked up): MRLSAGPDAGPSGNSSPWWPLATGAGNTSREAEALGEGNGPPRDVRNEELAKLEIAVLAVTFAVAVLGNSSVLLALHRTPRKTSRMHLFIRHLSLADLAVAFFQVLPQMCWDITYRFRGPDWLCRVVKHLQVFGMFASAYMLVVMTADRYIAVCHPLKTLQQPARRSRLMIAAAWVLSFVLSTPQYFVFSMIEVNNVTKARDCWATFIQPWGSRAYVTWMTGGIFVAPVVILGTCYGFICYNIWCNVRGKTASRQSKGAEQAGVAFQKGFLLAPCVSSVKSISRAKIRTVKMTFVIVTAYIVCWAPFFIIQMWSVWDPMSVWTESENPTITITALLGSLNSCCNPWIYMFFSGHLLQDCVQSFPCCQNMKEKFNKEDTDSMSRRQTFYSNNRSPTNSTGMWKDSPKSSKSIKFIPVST
Description: V1A CEREP ligand profiling
For data set [25], the target named is Sodium-dependent dopamine transporter (Homo sapiens) (UniProt Q01959). The data set is described as follows: DA transporter CEREP ligand profiling. The note with it: Compound concentration 10.0 uM.
Data set [26] has as its target Nociceptin receptor (Homo sapiens) (UniProt P41146). Conditions: Compound concentration 10.0 uM.
Description: ORL1 CEREP ligand profiling
Data set [27] has as its target Adrenergic receptor alpha-1 (Homo sapiens) (UniProt P35348+P25100+P35368). The data set is described as follows: a 1 CEREP ligand profiling. The class given is protein assay. The note with it: Compound concentration 10.0 uM.
The target of data set [28] is Endothelin-1 receptor (Homo sapiens) (UniProt P25101). Conditions: Compound concentration 10.0 uM.
Chain of Endothelin-1 receptor (Homo sapiens) (P25101 whole entry): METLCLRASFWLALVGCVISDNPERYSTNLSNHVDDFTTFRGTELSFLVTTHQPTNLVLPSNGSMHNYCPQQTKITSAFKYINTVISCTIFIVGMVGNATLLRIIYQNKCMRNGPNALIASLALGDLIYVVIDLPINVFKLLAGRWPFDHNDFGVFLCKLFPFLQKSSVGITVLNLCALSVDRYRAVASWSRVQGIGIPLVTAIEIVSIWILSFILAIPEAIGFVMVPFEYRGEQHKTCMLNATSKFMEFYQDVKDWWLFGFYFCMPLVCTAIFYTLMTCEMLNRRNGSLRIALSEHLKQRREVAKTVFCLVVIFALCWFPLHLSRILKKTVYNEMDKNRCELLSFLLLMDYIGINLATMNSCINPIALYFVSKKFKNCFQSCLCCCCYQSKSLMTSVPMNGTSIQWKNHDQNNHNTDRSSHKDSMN
Description: ETA CEREP ligand profiling
Data set [29] deals with Beta-2 adrenergic receptor (Homo sapiens) (UniProt P07550). As to the kind of experiment: b 2 CEREP ligand profiling. Conditions: Compound concentration 10.0 uM.
Chain of Beta-2 adrenergic receptor (Homo sapiens) (P07550 whole entry, looked up): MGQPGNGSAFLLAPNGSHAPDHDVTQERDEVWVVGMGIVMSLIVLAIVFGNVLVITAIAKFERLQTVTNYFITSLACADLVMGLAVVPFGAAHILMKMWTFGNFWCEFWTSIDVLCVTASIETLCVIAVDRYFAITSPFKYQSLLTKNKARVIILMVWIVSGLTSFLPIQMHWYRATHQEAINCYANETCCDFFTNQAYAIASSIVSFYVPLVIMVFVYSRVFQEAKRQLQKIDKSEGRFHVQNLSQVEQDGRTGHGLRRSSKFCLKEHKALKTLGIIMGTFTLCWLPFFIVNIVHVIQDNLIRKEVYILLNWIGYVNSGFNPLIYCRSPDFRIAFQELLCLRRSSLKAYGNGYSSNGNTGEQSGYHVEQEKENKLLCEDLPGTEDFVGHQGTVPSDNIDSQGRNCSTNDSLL
For data set [30], the target named is 5-hydroxytryptamine receptor 7 (Homo sapiens) (UniProt P34969). Conditions: Compound concentration 10.0 uM.
Description: 5-HT7 CEREP ligand profiling
Data set [31] addresses GABA-A receptor; anion channel (Homo sapiens) (UniProt P14867+P47870+P18507+P28472+P48169+Q99928+Q9UN88+P34903+O00591+O14764+Q8N1C3+P18505+P78334+P47869+P31644+Q16445). Conditions: Compound concentration 10.0 uM.
Description: BZD (central) CEREP ligand profiling
Data set [32] concerns the target Muscarinic acetylcholine receptor M1 (Homo sapiens) (UniProt P11229). Conditions: Compound concentration 10.0 uM.
Description: M1 CEREP ligand profiling
Data set [33] concerns the target Sodium channel alpha subunit (Na+ channel) (Homo sapiens, UniProt P35498+P35499+Q01118+Q14524+Q15858+Q99250+Q9NY46+Q9UI33+Q9UQD0+Q9Y5Y9). As to the kind of experiment: Na+ channel CEREP ligand profiling. The class given is protein assay. Conditions: compound concentration 10 uM.

Chain of Histamine H2 receptor (Homo sapiens) (P25021 whole entry): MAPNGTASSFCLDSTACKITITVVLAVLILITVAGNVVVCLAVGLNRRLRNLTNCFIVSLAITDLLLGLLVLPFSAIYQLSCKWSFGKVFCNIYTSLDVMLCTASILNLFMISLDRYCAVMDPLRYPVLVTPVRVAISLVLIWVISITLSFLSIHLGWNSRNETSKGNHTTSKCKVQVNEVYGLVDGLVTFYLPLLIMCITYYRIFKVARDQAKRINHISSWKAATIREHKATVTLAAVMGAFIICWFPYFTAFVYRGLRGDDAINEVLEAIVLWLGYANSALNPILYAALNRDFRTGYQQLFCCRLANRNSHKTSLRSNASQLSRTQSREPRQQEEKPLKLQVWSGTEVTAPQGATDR
Chain of Sodium-dependent noradrenaline transporter (Homo sapiens) (P23975 whole entry): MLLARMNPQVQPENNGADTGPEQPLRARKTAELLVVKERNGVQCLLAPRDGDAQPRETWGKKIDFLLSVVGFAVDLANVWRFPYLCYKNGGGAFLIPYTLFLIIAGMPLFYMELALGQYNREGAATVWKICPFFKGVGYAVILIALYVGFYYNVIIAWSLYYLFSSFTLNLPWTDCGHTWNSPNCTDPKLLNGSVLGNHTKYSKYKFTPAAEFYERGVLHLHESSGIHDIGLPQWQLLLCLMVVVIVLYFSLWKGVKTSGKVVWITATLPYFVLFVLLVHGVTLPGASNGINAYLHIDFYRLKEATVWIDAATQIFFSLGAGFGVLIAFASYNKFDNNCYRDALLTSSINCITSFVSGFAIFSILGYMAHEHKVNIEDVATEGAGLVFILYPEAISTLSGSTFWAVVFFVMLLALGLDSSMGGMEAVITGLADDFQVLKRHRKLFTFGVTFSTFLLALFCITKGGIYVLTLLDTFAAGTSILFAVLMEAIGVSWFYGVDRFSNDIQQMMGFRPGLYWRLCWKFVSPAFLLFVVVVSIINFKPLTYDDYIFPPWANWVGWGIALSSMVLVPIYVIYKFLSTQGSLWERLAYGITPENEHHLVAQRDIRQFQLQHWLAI
Chain of Translocator protein (Rattus norvegicus) (P16257 whole entry, looked up): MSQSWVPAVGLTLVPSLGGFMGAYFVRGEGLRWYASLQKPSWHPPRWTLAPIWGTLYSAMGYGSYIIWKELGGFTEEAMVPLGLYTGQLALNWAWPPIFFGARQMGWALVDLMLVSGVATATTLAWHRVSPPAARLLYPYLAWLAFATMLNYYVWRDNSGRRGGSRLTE

With `CSc1cccnc1N1CCN(Cc2nc3ccccc3[nH]2)CC1` [A-769], the residual activity in data set [1] was 82%; in [2], 100%; in data set [3], 96%; in data set [4], 100%.
As for `c1ccc(N2CCN(Cc3nc4ccccc4[nH]3)CC2)nc1` [ABT-724], the inhibition in data set [5] is below 10%; in data set [6], below 10%; in data set [7], 21%; in [8], below 10%; in data set [9], below 10%; in data set [10], below 10%. For the same compound, the inhibition in data set [11] was 21%; in [12], 17%; in [13], below 10%; in data set [14], below 10%; in [15], 17%; in data set [16] it was below 10%. In addition, the inhibition in data set [17] was below 10%; in data set [19] it was below 10%; in data set [21], below 10%; in data set [22] it was below 10%; in [23], 10%; in [24], below 10%. Also, the inhibition in [25] was 11%; in data set [26], below 10%; in data set [27], 23%; in [28], below 10%; in data set [29], 13%; in [30] it was below 10%. The inhibition in data set [31] and in [32] was below 10% throughout. Also, the Ki at D(4) dopamine receptor was 57.5 nM (active). For the same compound, the inhibition at 10 µM in data set [18], in data set [20] and in data set [33] was < 10% (not active) in each case.
